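Test compounds were applied to cells in 96-well plates for 48 hours at 5 doses. GI50 = concentration required for 50% inhibition of growth. TGI marks complete inhibition of growth.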
How the values were obtained:
Assay in all cases: NCI-60 cell line screen, 48 h
[1] = tested on: A549 NSCLC
[2] = tested on: SK-MEL-5 melanoma
[3] = tested on: SF-268 CNS
[4] = tested on: OVCAR-4 ovarian
[5] = tested on: MDA-MB-435
[6] = tested on: RXF 393 renal
[7] = tested on: SNB-19 CNS
[8] = tested on: T-47D breast
[9] = tested on: SK-MEL-28 melanoma
[10] = tested on: MOLT-4 leukemia
[11] = tested on: MALME-3M melanoma
[12] = tested on: TK-10 renal
[13] = tested on: LOX IMVI melanoma
[14] = tested on: OVCAR-8 ovarian
[15] = tested on: U251 CNS
[16] = tested on: SN12C renal
[17] = tested on: SK-MEL-2 melanoma
[18] = tested on: COLO 205 colon
[19] = tested on: HL-60(TB) leukemia
[20] = tested on: HS 578T breast
[21] = tested on: CCRF-CEM leukemia
[22] = tested on: UO-31 renal
[23] = tested on: EKVX NSCLC
[24] = tested on: HOP-92 NSCLC
[25] = tested on: OVCAR-3 ovarian
[26] = tested on: RPMI-8226 leukemia
[27] = tested on: HT29 colon
[28] = tested on: BT-549 breast
[29] = tested on: SF-539 CNS
[30] = tested on: NCI-H23 lung
[31] = tested on: ACHN renal
[32] = tested on: CAKI-1 renal
[33] = tested on: HCT-116 colon
[34] = tested on: OVCAR-5 ovarian
[35] = tested on: HOP-62 NSCLC
[36] = tested on: SF-295 CNS
[37] = tested on: MDA-MB-231 breast
[38] = tested on: HCC-2998 colon
[39] = tested on: K-562 leukemia
[40] = tested on: IGROV1 ovarian
[41] = tested on: PC-3 prostate
[42] = tested on: M14 melanoma
[43] = tested on: HCT-15 colon
[44] = tested on: MCF7 breast
[45] = tested on: SNB-75 CNS
[46] = tested on: MDA-MB-468 breast
[47] = tested on: KM12 colon
[48] = tested on: 786-0 renal
[49] = tested on: DU-145 prostate
[50] = tested on: SR leukemia
[51] = tested on: NCI-H522 lung
[52] = tested on: NCI-H226 lung
[53] = tested on: NCI-H460 lung
[54] = tested on: A498 renal

With COC[C@@H](CC(C)C)N=C1NC(=O)/C(=C/c2ccc3ncoc3c2)N1 the GI50 [1] was 2.65 µM, the TGI [1] was > 100 µM and the GI50 [2] was 2.44 µM. For the same compound, the TGI [2] was 12 µM, the GI50 [3] was 3.65 µM and the TGI [3] was 57.3 µM. The GI50 [4] was 10.2 µM, the TGI [4] was > 100 µM and the GI50 [5] was 4.33 µM. For the same compound, the TGI [5] was > 100 µM, the GI50 [6] was 2.72 µM and the TGI [6] was 9.18 µM. For the same compound, the GI50 [7] was 1.99 µM, the TGI [7] was > 100 µM and the GI50 [8] was 2.2 µM. It also gave a TGI [8] of 9.96 µM, a GI50 [9] of 2.66 µM and a TGI [9] of 8.79 µM. The GI50 [10] was 4.27 µM, the TGI [10] was > 100 µM and the GI50 [11] was 3.06 µM. The TGI [11] was 50.5 µM, the GI50 [12] was 3.24 µM and the TGI [12] was > 100 µM. For the same compound, the GI50 [13] was 2.87 µM, the TGI [13] was > 100 µM and the GI50 [14] was 2.88 µM. For the same compound, the TGI [14] was > 100 µM, the GI50 [15] was 2.72 µM and the TGI [15] was > 100 µM. For the same compound, the GI50 [16] was 3.12 µM, the TGI [16] was > 100 µM and the GI50 [17] was 1.93 µM. It also gave a TGI [17] of 4.36 µM, a GI50 [18] of 2.23 µM and a TGI [18] of 8.06 µM. For the same compound, the GI50 [19] was 3.48 µM, the TGI [19] was 23.4 µM and the GI50 [20] was 2.31 µM. The TGI [20] was 9.22 µM, the GI50 [21] was 2.6 µM and the TGI [21] was 9.93 µM. For the same compound, the GI50 [22] was 2.67 µM, the TGI [22] was 35.3 µM and the GI50 [23] was 3.55 µM. The TGI [23] was > 100 µM, the GI50 [24] was 2.58 µM and the TGI [24] was 9.48 µM. It also gave a GI50 [25] of 1.08 µM, a TGI [25] of 4.69 µM and a GI50 [26] of 3.19 µM. The TGI [26] was > 100 µM, the GI50 [27] was 4.3 µM and the TGI [27] was 24.1 µM. The GI50 [28] was 2.44 µM, the TGI [28] was 11.4 µM and the GI50 [29] was 0.618 µM. The TGI [29] was 7.11 µM, the GI50 [30] was 2.21 µM and the TGI [30] was 8.75 µM. The GI50 [31] was 2.89 µM, the TGI [31] was > 100 µM and the GI50 [32] was 2.59 µM. The TGI [32] was > 100 µM, the GI50 [33] was 2.13 µM and the TGI [33] was > 100 µM. For the same compound, the GI50 [34] was 3.52 µM, the TGI [34] was > 100 µM and the GI50 [35] was 2.89 µM. For the same compound, the TGI [35] was > 100 µM, the GI50 [36] was 3.65 µM and the TGI [36] was > 100 µM. The GI50 [37] was 5.64 µM, the TGI [37] was > 100 µM and the GI50 [38] was 7.43 µM. The TGI [38] was > 100 µM, the GI50 [39] was 2.92 µM and the TGI [39] was > 100 µM. For the same compound, the GI50 [40] was 2.73 µM, the TGI [40] was > 100 µM and the GI50 [41] was 5.72 µM. The TGI [41] was > 100 µM, the GI50 [42] was 5.64 µM and the TGI [42] was > 100 µM. For the same compound, the GI50 [43] was 2.43 µM, the TGI [43] was > 100 µM and the GI50 [44] was 2.69 µM. The TGI [44] was > 100 µM, the GI50 [45] was 0.0317 µM and the TGI [45] was 4.01 µM. The GI50 [46] was 1.35 µM, the TGI [46] was 6.99 µM and the GI50 [47] was 3.39 µM. The TGI [47] was > 100 µM, the GI50 [48] was 5.31 µM and the TGI [48] was > 100 µM. The GI50 [49] was 3.74 µM, the TGI [49] was > 100 µM and the GI50 [50] was 2.87 µM. For the same compound, the TGI [50] was > 100 µM, the GI50 [51] was 2.13 µM and the TGI [51] was 8.52 µM. The GI50 [52] was 2.18 µM, the TGI [52] was > 100 µM and the GI50 [53] was 2.67 µM. The TGI [53] was > 100 µM, the GI50 [54] was 1.34 µM and the TGI [54] was 6.88 µM.

— PubChem BioAssay (NCI)
